Here are results for one compound from EPA's ToxValDB 9.5 (doi:10.2903/j.efsa.2011.2018).

Series [1] deals with Aphidius rhopalosiphi. Description: LR50; higher = less toxic. As to conditions: not reported; mortality.
Series [2] concerns Coturnix japonica.
In series [3] the test system is Apis mellifera. As to conditions: acute; duration: 48 hours; dermal; mortality.
In series [4] the test system is Tagia sp. To be noted: acute; duration: 14 days; mortality.
Series [5] relates to Folsomia candida. As to conditions: chronic/long-term; duration: 28 days; mortality.
For series [6], the system named is Lepomis macrochirus. As to conditions: acute; duration: 96 hours; mortality.
For series [7], the system named is Anas platyrhynchos. As to conditions: short-term; oral; feed; mortality.
Series [8] concerns Rattus norvegicus.

Converted amounts (≈) assume the structure as drawn.

For orientation: LOAEL means the lowest tested level that showed an adverse finding. What is called NOAEL is the highest tested level that showed no adverse finding. The compound `[O-][n+]1nc(-n2ccnc2)nc2ccc(Cl)cc21` [Triazoxide] showed an LR50 in series [1] of over 5.13 g/ha. In addition, the LD50 is 90 mg/kg-day in series [2] (acute, oral, mortality); over 200 µg/piece in series [3]; 14 mg/kg-day in series [8] (acute, oral, mortality). The NOEC came to 11.7 mg/kg-day in series [2] (reproduction developmental, duration: 6 weeks) and 500 mg/kg in series [5]. Also, the LC50 in series [4] was over 1000 mg/kg; in series [6] it was 0.077 mg/L (≈ 0.311 µM); in series [7], 268 mg/kg-day. Further, in series [8] (chronic, duration: 2 years, gross pathology), the lowest observed adverse effect level (LOAEL) is 0.05 mg/kg-day. In series [8] (reproduction developmental, no effects), the NOEL came out at 2.04 mg/kg-day. For the same compound, the NOAEL in series [8] (short-term, duration: 28 days) amounted to 1.5 mg/kg-day; in series [8] (subchronic, duration: 90 days, oral, hematological), 0.21 mg/kg-day.
